For experiment [1], the system named is Esterase aus Schweineleber (Carboxylic-esterhydrolase EC 3.1.1.1). In words: Enzyme inhibition test, esterase (acidimetric comparison with control). Type of experiment: biochemical, Schwein. The following applies: 2 500 ppm test substance; substrate Citronensäuretriethylester; enzyme 1 mg in 16 ml. Here is the method:
(§1) Zur Feststellung der enzyminhibierenden Wirksamkeit wurde folgende Testmethodik verwendet. Es wurden jeweils 0,2 Mol in 10 bis 20 ml physiologischer NatriumchloridLösung Substrat eingesetzt. Als Testenzyme dienten: • Esterase aus Schweineleber (Carboxylic-esterhydrolase EC 3.1.1.1) • Spezifische Aktivität: circa 100 U/mg, Einsatzkonzentration: 1 mg in 16 ml Lösung. • Als Substrat diente Citronensäuretriethylester. • Lipase aus Rhizopus arrhizus (Triacylglyceroacylhydrolase EC 3.1.1.3) • Spezifische Aktivität: circa 1 200 U/mg, Einsatzkonzentration: 0,25 mg in 20 ml Lösung • Als Substrat diente Olivenöl. Zur Stabilisierung der Emulsion wurde Natriumdesoxycholat und Gummi arabicum verwendet. Die Hemmwerte wurden bestimmt durch azidimetrischen Vergleich der Kontrolle mit der durch die Prüfsubstanz gehemmten Reaktion und in % ausgedrückt. Als Konzentration für die Hemmsubstanzen wurden 2 500 ppm gewählt.

In experiment [2] the target is T1, Lipase aus Rhizopus arrhizus (Triacylglyceroacylhydrolase EC 3.1.1.3) (Rhizopus oryzae, UniProt P61872).
T1 construct: Lipase aus Rhizopus arrhizus (Triacylglyceroacylhydrolase EC 3.1.1.3); host or cells: Rhizopus arrhizus (natural producer)
T1 sequence (P61872 96-392): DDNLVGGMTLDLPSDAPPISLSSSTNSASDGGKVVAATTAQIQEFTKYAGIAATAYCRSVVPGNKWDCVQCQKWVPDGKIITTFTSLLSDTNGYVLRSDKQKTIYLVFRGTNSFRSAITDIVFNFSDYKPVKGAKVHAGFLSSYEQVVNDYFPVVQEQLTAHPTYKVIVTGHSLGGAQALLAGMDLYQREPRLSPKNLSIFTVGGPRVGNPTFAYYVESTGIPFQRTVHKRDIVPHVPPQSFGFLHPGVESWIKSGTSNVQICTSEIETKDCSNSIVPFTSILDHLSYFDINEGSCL
Put plainly: Enzyme inhibition test, lipase (acidimetric comparison with control). It counts as biochemical. The following applies: read-out: Hemmwerte in % gegen Lipase; for inhibition at 2500 ppm: substrate Olivenöl, enzyme 0,25 mg in 20 ml. How it is done: as §1

In the case of `CCN(CC)C(=O)Cc1ccc(Cl)cc1` [Produkt A, p-Chlorphenylacet-diethylamid], the “Hemmwerte in % gegen Esterase” value in experiment [1] was determined as 77%. Besides, the inhibition at 2500 ppm in experiment [2] is 23%.

`CCN(CC)C(=O)Cc1ccc(OC)c(OC)c1` [Produkt B, 3,4-Dimethoxy-phenylacet-diethylamid]: the “Hemmwerte in % gegen Esterase” value in experiment [1] came out at 60%. Also, the inhibition at 2500 ppm in experiment [2] worked out at 10%.

As for `CCN(CC)C(=O)CC(c1ccccc1)c1ccccc1` [Produkt C, 3,3-Diphenyl-propionsäure-diethylamid], the “Hemmwerte in % gegen Esterase” value in experiment [1] was determined as 57%. Moreover, in experiment [2], the inhibition at 2500 ppm is 12%.

In the case of `CCN(CC)C(=O)C(C)(C)Oc1ccc(Cl)cc1` [Produkt D, 2-(p-Chlorphenoxy)-2-methylpropionsäure-diethylamid], in experiment [1], the “Hemmwerte in % gegen Esterase” value worked out at 11%. Moreover, the inhibition at 2500 ppm in experiment [2] was 52%.

For the compound `CCN(CC)C(=O)C(C)(C)Sc1ccc(Cl)cc1` [Produkt E, 2-(p-Chlor-phenylthio)-2-methylpropionsäure-diethylamid], the “Hemmwerte in % gegen Esterase” value in experiment [1] was determined as 30%. For the same compound, the inhibition at 2500 ppm in experiment [2] came to 59%.

Consider `CCN(CC)C(=O)COc1ccc(Cl)cc1` [Produkt F, p-Chlor-phenoxyacet-diethylamid], for which the “Hemmwerte in % gegen Esterase” value in experiment [1] is listed as 65%. For the same compound, the inhibition at 2500 ppm in experiment [2] came to 10%.

For `CCN(CC)C(=O)COc1ccc(C)c(C)c1` [Produkt G, 3,4-Dimethyl-phenoxyacet-diethylamid], in experiment [1], the “Hemmwerte in % gegen Esterase” value is 48%. The inhibition at 2500 ppm in experiment [2] came to 12%.

In the case of `CCOC(=O)C(O)(c1ccccc1)c1ccccc1` [Produkt H, Benzilsäure-ethylester], the “Hemmwerte in % gegen Esterase” value in experiment [1] worked out at 54%. Further, the inhibition at 500 ppm in experiment [2] came to 28%.

The values above are taken from EP0039857A1, “Preparation for the care of the skin” (Henkel Kommanditgesellschaft auf Aktien, priority 1980, dated 1981).
